Test results reported in paper PMC10855341, “Inhibition of Apoptosis in a Model of Ischemic Stroke Leads to Enhanced Cell Survival, Endogenous Neural Precursor Cell Activation and Improved Functional Outcomes” (International Journal of Molecular Sciences, 2024).

Test system: neural precursor cells (NPCs) from SVZ neurospheres
Assay: In vitro NPC cell viability with cisplatin (DAPI+ counts)
Assay type: cell-based, adult mice (C57BL/6)
Settings: 20 µM cisplatin alone, 8 h; mean ± SEM, n = 3 independent experiments
Method: NSC neurospheres were obtained from control […] C57BL/6 periventricular dissections, as described above. Neurospheres were collected and mechanically disassociated into single cells and plated in 96-well plates coated with 4% Matrigel (Corning 354234, Corning, NY, USA) at a density of 20,000 cells per well in 100 µL of SFM with […] epidermal growth factor (GIBCO, PMG8041, Waltham, MA, USA), […] basic fibroblast growth factor (GIBCO, PHG0266, Waltham, MA, USA) and 2 µg/mL heparin (Sigma-Aldrich, H3149, St. Louis, MO, USA) (referred to as growth factors). One day later, the media was removed and replaced with fresh SFM, growth factors, 20 µM cisplatin (Sigma-Aldrich, P4394, St. Louis, MO, USA) and 10 µM NWL283 (New World Laboratories, Laval, QC, Canada) in sterile PBS. The vehicle group received media containing SFM, growth factors and PBS.
To assess cell viability at 2 h and 8 h, cells were fixed with 4% PFA for 15 min and washed three times for 5 min in PBS. Cells were incubated for 10 min with 1:10,000 DAPI (Invitrogen, D130, Waltham, MA, USA), then washed three times for 5 min in PBS and imaged on an Axio Observer Zeiss microscope. DAPI cells were counted using ImageJ (https://imagej.net/ij/) analyze particle detection and then manually confirmed. Data were collected from three independent experiments.

N.N.[Cl][Pt][Cl] [cisplatin]
cell survival, DAPI+ cells: 49.09 ± 7.28 DAPI+ cells
